In patent US20220306695A1, “COMPSTATIN ANALOGUES AND THEIR MEDICAL USES” (priority 2019, published 2022):
Where two headings read alike, the source gives them in different places. Starred links: 1 amine or outer side, 2 acyl side, 3 side chain; linkers in the order of their positions; H or OH if unused. Positions of bridges follow the written chain, without caps; N, C: chain ends. Non-standard residues stand in square brackets, D forms with d. Residues, ends and D or L forms follow the SMILES beside them. Groups on a side chain read outwards from the residue. *: point of attachment. Trp(1-Me) = Cn1cc(C[C@H](N)C(=O)O)c2ccccc21; C18 diacid = O=C(O)CCCCCCCCCCCCCCCCC(=O)*; γGlu = O=C(O)[C@H](CCC(=O)[*:2])N[*:1]; AEEA = NCCOCCOCC(=O)O; Sar = CNCC(=O)O

Experiments:
[1] = biological target: T1, Human C3 (Homo sapiens, UniProt P01024); assay: Affinity measurement by surface plasmon resonance (SPR) with immobilized C3; format: binding; conditions: Table 7; immobilized C3, 25° C., pH 7.4
T1 construct: purchased Complement tech A1 13c (so in the source)
Description: Surface plasmon resonance (SPR) was used to characterize peptides with respect to their binding affinity (Kd) for C3. Human C3 (Complement tech cat #A1 13c) was immobilised on individual flow cells of CM5 sensor chips (GE Healthcare) using standard amine coupling to a density of approximately 3000 resonance units (RU) in a buffer consisting of 10 mM phosphate pH 7.4, 150 mM NaCl, 0.05% Tween20. For interaction experiments a multi-cycle experiment approach was used and performed using either a Biacore™ T200 or Biacore™ X100 instrument (GE Healthcare) at 25° C. Peptides were injected in increasing concentration series (5-8 different concentrations) for 60-120 s at a flow rate of 30 μL/min in a buffer consisting of 10 mM Tris buffer at pH 7.4, with 150 mM NaCl and 0.05% Tween20. This was followed by a dissociation period for up to 10 min. […] Sensorgrams were double-referenced (reference surface, blanks) prior to analysis of the kinetic profiles by globally fitting data to a 1:1 Langmuir binding model to obtain association and dissociation rates for calculation of the equilibrium dissociation constant Kd. Each peptide was tested at in at least 2 independent experiments.

[2] = in vivo; set-up: species or system Cynomolgus monkeys (Macaca fascicularis); conditions: male, cynomolgus monkey, sc, 1840 nmol/kg, t½
Description: Healthy male Cynomolgus monkeys (Macaca fascicularis) received single subcutaneous administrations of each test substance. Compounds were formulated in 20 mM phosphate adjusted with NaOH to pH 7.5 and mannitol for isotonicity and dosed at 1840 nmol/kg. Blood was collected from a femoral vein from each animal at the following times: Pre-dose, 1, 2, 4, 8, 24, 48, 72, 96 and 120 h (10 sampling times). Blood was collected into serum separation tubes and allowed to clot at room temperature. The tubes were centrifuged and resulting serum was aliquoted and snap-frozen over dry-ice and stored at nominally −80° C. until analysis. All NHP studies were performed in accordance with animal welfare laws and regulations, including approval of the study by a local ethical review process.
In order to assess pharmacokinetic half-life (t %/), serum samples isolated from non-human primates at specific time points after dosing were analysed for total drug compound after sample preparation by solid phase extraction (SPE) and liquid chromatography mass spectrometry (LC-MS/MS) using analogue internal standard. Single measurement of serum concentrations were used for calculation of the pharmacokinetic parameters using the non-compartmental approach in Phoenix WinNonlin 6.3. Plasma terminal elimination half-life (ty) was determined as In(2)/λz where λz is the magnitude of the slope of the log linear regression of the log concentration versus time profile during the terminal phase.

[3] = system: classical complement pathway; assay: In vitro haemolysis assay (inhibition of classical complement pathway); format: cell-based, human; conditions: Table 3; human serum, sensitized sheep red blood cells; read-out: IC50[nM], in vitro analysis of inhibition of hemolysis
Method in brief: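 Serially diluted compound (9 points) was preincubated 15 min at room temperature with diluted human serum, titrated per batch to give 70-90% maximal haemolysis, in Tris/casein buffer pH 7.4 with Mg2+/Ca2+. Antibody-sensitized sheep erythrocytes were then added for 30 min at 37° C, and the reaction was stopped with EDTA. Haemolysis was read at A405, with IC50 from 4PL fit.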

[4] = Solubility test at 10 mg/mL (visual inspection and light scattering); format: physicochemical
[5] = format: physicochemical; conditions: 50 mg/mL peptide; for Covalent oligomer content after 14 days 40° C. (%), F1 / Purity after 14 days 40° C. (%), F1: F1: 20 mM phosphate pH 5.5; for Covalent oligomer content after 14 days 40° C. (%), F1 / Covalent oligomer content after 14 days 40° C. (%), F2: denaturing SEC; for Purity after 14 days 40° C. (%), F1 / Purity after 14 days 40° C. (%), F2 / Purity after 14 days 40° C. (%), F3: normalized purity (HPLC)
Description: Chemical stability of compstatin analogues with cystathionine or disulfide bridge. Stability was assessed in three formulations at 50 mg/mL peptide, F1:20 mM phosphate pH 5.5, F2:20 mM phosphate pH 6.5 and F3:20 mM phosphate pH 7.5. The formulations were prepared by direct dissolution of peptide from lyophilized portions in the respective formulations. pH was adjusted to target with 1 M NaOH and 1 M HCl. Chemical stability was assessed under accelerated conditions (14 days, 40° C.) and evaluated as change in purity by reverse phase HPLC, and change in covalent oligomer content by denaturing SEC. The formulations were placed at 40° C. with analysis points at T=0, 7 and 14 days. On each time point a small volume was extracted and diluted to 2 mg/mL and tested by reverse phase HPLC and denaturing SEC. Purity was assessed by reverse phase HPLC using an Ultimate 3000 system for binary gradient application equipped with a Kinetix C18 column (cat. no. 00F-4462-Y0, 150 mm×3 mm, 2.6 μm) run at 0.5 ml/min with a gradient of buffer A (0.3% TFA, aq.) and buffer B (0.3% TFA, 90% MeCN, aq.) gradient from 40% B to 70% B over 20 min. Detection was done using a diode array detector set to 220 nm. Covalent oligomer formation was assessed by denaturing SEC (size exclusion chromatography) using an Ultimate 3000 system equipped with a TSKgel SuperSW 2000 column (cat. no. 818674, 300 mm×3 mm, 4 μm) run at 0.5 ml/min with isocratic flow of buffer A (0.1% TFA, 45% MeCN, aq.), 10 min. Detection was done using a diode array detector set to 215 nm. Compounds 126 and 156 were carefully weighed out and dissolved in formulations F1, F2 and F3 to a target concentration of 50 mg/mL. Once visually dissolved, concentration was confirmed by absorbance at 280 nm, and samples were placed in stability at 40° C. Samples for analysis were extracted on T=0, 7 and 14 days from a 40° C. climate chamber. The extracted volume was dissolved 1:25 (final concentration: 2 mg/mL) in 20 mM phosphate pH 5.5, 6.5 or 7.5 and measured by reverse phase HPLC and denaturing SEC by injection of 0.4 μL (column load […]). The resulting chromatograms were integrated to determine chemical purity by reverse phase HPLC and covalent oligomer content by denaturing SEC.

| SMILES | Kd [1] [nM] | half-life [2] [h] | IC50 [3] [nM] | Solubility, Condition 1 Acetate pH 4 ([4]; 10 mg/mL compound in 100 mM acetate pH 4) | Solubility, Condition 2 Acetate pH 5 ([4]; 10 mg/mL compound in 100 mM acetate pH 5) | Solubility, Condition 3 Phosphate pH 6 ([4]; 10 mg/mL compound in 100 mM phosphate pH 6) | Solubility, Condition 4 Phosphate pH 7 ([4]; 10 mg/mL compound in 100 mM phosphate pH 7) | Solubility, Condition 5 Phosphate pH 7.5 ([4]; 10 mg/mL compound in 100 mM phosphate pH 7.5) | Covalent oligomer content after 14 days 40° C. (%), F1 [5] [%] | Purity after 14 days 40° C. (%), F1 [5] [%] | Covalent oligomer content after 14 days 40° C. (%), F2 ([5]; F2: 20 mM phosphate pH 6.5) [%] | Purity after 14 days 40° C. (%), F2 ([5]; F2: 20 mM phosphate pH 6.5) [%] | Covalent oligomer content after 14 days 40° C. (%), F2 ([5]; F3: 20 mM phosphate pH 7.5) [%] | Purity after 14 days 40° C. (%), F3 ([5]; F3: 20 mM phosphate pH 7.5) [%] |
| --- | --- | --- | --- | --- | --- | --- | --- | --- | --- | --- | --- | --- | --- | --- |
| CC[C@H](C)[C@@H]1NC(=O)[C@@H](NC(=O)[C@H](Cc2ccc(O)cc2)NC(=O)[C@H](C)NC(=O)[C@H](CO)NC(C)=O)CSSC[C@@H](C(=O)N(C)CC(=O)N[C@@H](CCC(=O)O)C(=O)N[C@@H](CCCCNC(=O)CC[C@H](NC(=O)CNC(=O)CC[C@H](NC(=O)CCCCCCCCCCCCCCCCC(=O)O)C(=O)O)C(=O)O)C(N)=O)NC(=O)[C@H](CCCNC(=N)N)NC(=O)[C@H](Cc2c[nH]cn2)NC(=O)[C@H](CCC(=O)O)NC(=O)CNC(=O)[C@H](Cc2c[nH]c3ccccc23)NC(=O)[C@H](CC(=O)O)NC(=O)[C@H](CCC(N)=O)NC(=O)[C@H](Cc2cn(C)c3ccccc23)NC1=O [Compound 106] (Ac-SAYCI[Trp(1-Me)]QDWGEHRC[Sar]EK([γGlu-Gly-γGlu-C18 diacid])-NH2; disulfide 4-14) | 5.4 | 93.9 | < 250 |  |  |  |  |  |  |  |  |  |  |  |
| CC[C@H](C)[C@@H]1NC(=O)[C@@H](NC(=O)[C@H](Cc2ccc(O)cc2)NC(=O)[C@H](C)NC(=O)[C@H](CO)NC(=O)CNC(=O)[C@H](CCC(=O)O)NC(C)=O)CSSC[C@@H](C(=O)N(C)CC(=O)N[C@@H](CCC(=O)O)C(=O)N[C@@H](CCCCN)C(=O)N[C@@H](CCC(=O)N[C@@H](CCCCNC(=O)COCCOCCNC(=O)COCCOCCNC(=O)CC[C@H](NC(=O)CCCCCCCCCCCCCCCCC(=O)O)C(=O)O)C(N)=O)C(=O)O)NC(=O)[C@H](CCCNC(=N)N)NC(=O)[C@H](Cc2c[nH]cn2)NC(=O)[C@H](CCC(=O)O)NC(=O)CNC(=O)[C@H](Cc2c[nH]c3ccccc23)NC(=O)[C@H](CC(=O)O)NC(=O)[C@H](CCC(N)=O)NC(=O)[C@H](Cc2cn(C)c3ccccc23)NC1=O [Compound 111] (Ac-EGSAYCI[Trp(1-Me)]QDWGEHRC[Sar]EK[γGlu]K([AEEA-AEEA-γGlu-C18 diacid])-NH2; disulfide 6-16) |  | 157 | < 100 | − (denotes lack of solubility at the given condition, as UV absorbance at 340 nm exceeds 0.1 AU and/or it is visibly turbid or contains particles.) | − (denotes lack of solubility at the given condition, as UV absorbance at 340 nm exceeds 0.1 AU and/or it is visibly turbid or contains particles.) | + (denotes solubility at the given condition, as determined by UV absorbance being less than 0.1 AU at 340 nm and the sample being clear when manually inspected.) | + (denotes solubility at the given condition, as determined by UV absorbance being less than 0.1 AU at 340 nm and the sample being clear when manually inspected.) | + (denotes solubility at the given condition, as determined by UV absorbance being less than 0.1 AU at 340 nm and the sample being clear when manually inspected.) | 30 | 80 | 77 | 24 | 61 | 33 |
| CC[C@H](C)[C@@H]1NC(=O)[C@@H](NC(=O)[C@H](Cc2ccccc2)NC(=O)[C@H](CCC(=O)O)NC(=O)[C@H](CO)NC(C)=O)CSSC[C@@H](C(=O)N[C@H](C(=O)N[C@@H](CCC(=O)O)C(=O)NCC(=O)N[C@@H](CCC(=O)O)C(=O)NCCOCCOCC(=O)N[C@@H](CCC(=O)O)C(=O)N[C@@H](CO)C(=O)N[C@@H](CCCCNC(=O)CC[C@H](NC(=O)CCCCCCCCCCCCCCCCC(=O)O)C(=O)O)C(N)=O)[C@@H](C)O)NC(=O)[C@H](CCCNC(=N)N)NC(=O)[C@H](Cc2c[nH]cn2)NC(=O)[C@H](CCC(=O)O)NC(=O)CNC(=O)[C@H](Cc2c[nH]c3ccccc23)NC(=O)[C@H](CC(=O)O)NC(=O)[C@H](CCC(N)=O)NC(=O)[C@H](Cc2cn(C)c3ccccc23)NC1=O [Compound 142] (Ac-SEFCI[Trp(1-Me)]QDWGEHRCTEGE[AEEA]ESK([γGlu-C18 diacid])-NH2; disulfide 4-14) |  | 143 | < 100 |  |  |  |  |  | 63 | 50 | 64 | 37 | 56 | 45 |
